A short description of series [1]: Zeta potential of nanoparticles (electrophoretic light scattering). The format is physicochemical. An excerpt:
Zeta potential is a measurement of the magnitude of the electrostatic or charge repulsion/attraction between particles. This can be determined by analysing particle mobility and charge (Zeta potential) using the Electrophoretic Light Scattering (ELS) technique.
Zeta potential is a measurement of the magnitude of the electrostatic or charge repulsion/attraction between particles. This can be determined by analysing particle mobility and charge (Zeta potential) using the Electrophoretic Light Scattering (ELS) technique. […] Parameters: reference material: polystyrene latex, dispersant: water, 25° C. The measurements of the zeta potential were carried out using the Zetasizer Advance Series—Pro (Malvern Panalytical Ltd, Malvern, UK) according to the manufacturer's instructions.

Series [2] has as its system macrophage-polarised primary bone marrow derived monocytes. Put plainly: eGFP mRNA transfection of macrophage-polarised primary mouse bone marrow derived monocytes, flow cytometry. The format is cell-based. The conditions noted are these: GSCG1,2-RHL NP=0.6:1, GSCG1,2-RL, 3-LR NP=0.16:1, GSCG1,RL, 2-LR NP=8:1, DOTMA:DOPE w/w 10:1, lipid-only DOTMA/DOPE w/w 3.2:1, FIG. 2. The procedure: BMDM cells were isolated using the StemCell Tech EasySep Mouse Monocyte Isolation Kit from mouse bone marrow cell suspension. The cells were resuspended in complete medium (DMEM+1% glutamax+10% heat inactivated FBS+1% Pen/Strep) enriched with 50 ng/ml murine M-CSF (1:1000 of 50 μg/ml stock) at 1E+6 cells/mi. 2 million cells (i.e. 2 mL) was seeded in each well of 6-well plate(s). The plate was incubated at 37° C. for 4 days. Half media exchange was performed using complete media enriched with […] murine M-CSF and 40 ng/ml murine IL-4. Cells were then harvested the next day (day 5) by washing cells with PBS and a 10 minute incubation with 5 mM EDTA (diluted in PBS) at 37° C. followed by plate tapping and resuspension. […]
Data were collected using a BD LSRFortessa I analyser running […] software (Beckton Dickinson). All collected data were analysed using FlowJo 10.0 software.
Transfection efficiency of macrophage-polarised primary bone marrow derived monocytes using various peptide dendrimer/lipid nanoparticles was assessed and compared to lipid-only nanoparticles (LPX-RNA). Each nanoparticle, with or without dendrimer, included eGFP mRNA to allow analysis of absolute numbers of cells transfected to be assessed by flow cytometry. […]

Series [3] has as its system human THP-1 cells. Put plainly: eGFP mRNA transfection of human THP-1 macrophages, flow cytometry. It counts as cell-based. The conditions noted are these: THP-1, FIG. 3. The procedure:
THP-1 cells (a human leukaemia monocytic cell line) were sub-cultured in RPMI (with glutamax)+10% heat inactivated FBS (complete media) at 3E+5 cells/ml and passaged every 3-4 days. For macrophage polarisation 7.5E+6 cells were seeded in T75 flasks in a total of 20 ml complete media containing 5 ng/ml PMA (1:1000 of 5 ug/ml stock). The cells were transferred to the 37° C. incubator for overnight. After 24 hrs, THP-1 cells were washed with complete medium and a fresh flask complete medium (not containing PMA) was overlaid on the cells. After a further 72 hrs, the complete medium was exchanged for fresh complete media containing 20 ng/ml rhlL-4 (1:500 of 10 μg/ml stock). 24 hrs later the cells were harvested by firstly washing the cells with PBS followed by a 5 minute treatment at 37° C. with 5 mM EDTA (diluted in PBS). Cells were spun down at 300 g for 5 minutes and resuspended in a complete medium containing 20 ng/ml rhlL-4 at 2.4E+5 cells/mi. 500 ul of cells were seeded into each well on a 24-well plate and left overnight in the 37° C. incubator.
The medium overlaying the polarised THP-1 cells was aspirated and exchanged with 480 ul/well complete media containing 20 ng/ml rhlL-4. […]
Data were collected using a BD LSRFortessa I analyser running […] software (Beckton Dickinson). All collected data were analysed using FlowJo 10.0 software. […]
In general terms: A flow cytometer gives signals particle by particle.

For the substance (RHL)4(KRHL)2KGSC-NH2 [GSCG1,2-RHL], the “zeta potential” value in series [1] (GSCG1,2-RHL N:P=0.6:1, DOTMA:DOPE, coated with GSGGSGGSCG1-EEEE, with/without CpG (mRNA:CpG w/w 9:1)) was “+48 mV”; in series [1] (mRNA, N:P 0.6:1, DOTMA:DOPE w/w 10:1, with or without 3 equivalents G1-EEEE with mannose coating), 28.23 mV. The Zeta potential measurement entry in series [1] (GSCG1,2-RHL and DOTMA:DOPE nanoparticles, diluted 3× in 25 mM HEPES, then 60× in water) was “+33.5 mV”. The transfection efficiency result in series [2] was “approximately 35%”. Besides, in series [3], the “increase of transfection efficiency at NP=0.6:1 compared to NP=5:1” value is given as “approximately 10%”.
